Measurements from patent publication US10214762B2, “Cell differentiation devices and methods” (GEORGIA TECH RESEARCH CORPORATION, priority 2014, dated 2019).

Assays:
[1] = tested on: E. Coli strain (ATCC 43888); assay: three-channel, six-chamber microfluidic chemotaxis assay; type: cell-based, Escherichia coli
Method: PBS, Tris and LB were autoclaved before use. E Coli strain (ATCC 43888) was obtained from Fisher Scientific (Pittsburgh, Pa.). All cultures were grown in 10 mL of LB incubated at 37° C. for approximately 4 hours until the optical density of sample at wavelength of 600 nm reached 0.8. Optical density at 600 nm was measured for cell culture quantification.
An exemplary device described and depicted herein consists of a center channel that delivers a bacteria sample from a small reservoir to the central interaction region, where the channel is perpendicularly connected to six chambers. […] These channels serve as a source for generating a chemical gradient in the chambers. A nitrocellulose membrane (Millipore type GSTF) with a 0.22 μm pore size serves as a porous medium that separates the side channels from the chambers while allowing chemicals to diffuse through to the chambers. The pore size of 0.22 μm was selected as an exemplary pore size to ensure chemical axial flow through the porous nitrocellulose substrate, while prohibiting the passage of the cells or analyte to be analyzed through the porous substrate. Other pore sizes may be utilized depending on the type of assay and cells or analyte to be analyzed are contemplated herein.
The same volume of buffer saline was taken back through the filter into the syringe; suspending the cells in the buffer saline medium. This process was repeated three times to ensure the complete exchange of growth medium with buffer saline. The bacterial motility was not affected.
The microfluidic device was prepared as follow. The top glass assembly was properly cleaned and reused for many experiments, while the membrane and the bottom glass were renewed for each experiment. Acetone, isopropanol, and DI water were used to effectively clean the top glass and reservoirs. The membrane layer was soaked entirely in buffer solution for 30 min before use to ensure the removal of all air bubbles. The soaked membrane was then aligned with the inlet/outlet ports on the top glass and sandwiched between the top glass and another glass slide using 6 small stainless steel clips that provide constant and consistent pressure over the entire membrane area, as shown in FIG. 3.
After the device assembly, the input reservoirs were filled with buffer and the output reservoirs were vacuumed for a few seconds, the strong resulting flow expels all possible bubbles from the microfluidic system. The channels were inspected under microscope before conducting tests. All the experiments were conducted at least for three times to determine reproducibility. The bacterial chemotaxis experiments were conducted at an ambient temperature of 36° C.
Chemotactic response of cells to a chemical gradient was tested in another set of experiments. […]

[2] = tested on: E Coli; conditions: agarose gel diffusive medium; cited from earlier work
[3] = tested on: E Coli; conditions: about 20 mM aspartic acid; cited from earlier work
[4] = capillary assay; cited from earlier work

SMILES	ratio of bacteria count in the buffer chambers to the repellent side chambers ([1]; 0.5 mM NiCl2 as repellent, Tris Buffered Saline)	motility of the cells after introducing the repellent ([1]; due to an increase in tumbling frequency)	concentration generating the maximum chemotactic response [2] [mM]	chemotaxis index (IC) ([1]; 0.5 mM aspartic acid in PBS buffer as attractant, cells in attractant chambers vs buffer side chambers, about 30 min)	aspartic acid concentration giving a more significant chemotactic response ([1]; different aspartic acid concentrations tried) [mM]	chemotactic index (peak response) [3]	peak concentration for chemotaxis [4]
[Cl][Ni][Cl] [NiCl2, nickel chloride]	more than 8 times	reduced to some degree	–	–	–	–	–
N[C@@H](CC(=O)O)C(=O)O [aspartic acid, L-aspartic acid]	–	–	0.5	4	0.5	1.74	about 10 mM
